Experimental data reported in patent publication US8426408B2, “Pyrimidine inhibitors of kinases” (AbbVie Inc., priority 2009, dated 2013).

Assays:
Aurora B = molecular target: T1, Aurora B (Homo sapiens, UniProt Q96GD4); assay: Aurora B enzyme inhibition (time-resolved fluorescence, histone H3 peptide); type: biochemical; conditions: 1 mM ATP
T1 construct: Active Aurora B enzyme (recombinant residues 1-344)
Summary of the method: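 Recombinant Aurora B (residues 1-344) with GST-INCENP phosphorylated biotinylated histone H3 (1-21) peptide at 1 mM ATP in HEPES pH 7.4 with MgCl2, orthovanadate and Triton X-100 for 1 h. After EDTA stop, the phosphopeptide was detected by TR-FRET (Eu-cryptate anti-phospho-H3 / SA-APC, 665/615 nm ratio). IC50 from an exponential fit.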

Aurora A = molecular target: T2, Aurora A (Homo sapiens, UniProt O14965); assay: Aurora A enzyme inhibition (time-resolved fluorescence, STK substrate-2); type: biochemical; conditions: 1 mM ATP
T2 sequence (O14965 1-403): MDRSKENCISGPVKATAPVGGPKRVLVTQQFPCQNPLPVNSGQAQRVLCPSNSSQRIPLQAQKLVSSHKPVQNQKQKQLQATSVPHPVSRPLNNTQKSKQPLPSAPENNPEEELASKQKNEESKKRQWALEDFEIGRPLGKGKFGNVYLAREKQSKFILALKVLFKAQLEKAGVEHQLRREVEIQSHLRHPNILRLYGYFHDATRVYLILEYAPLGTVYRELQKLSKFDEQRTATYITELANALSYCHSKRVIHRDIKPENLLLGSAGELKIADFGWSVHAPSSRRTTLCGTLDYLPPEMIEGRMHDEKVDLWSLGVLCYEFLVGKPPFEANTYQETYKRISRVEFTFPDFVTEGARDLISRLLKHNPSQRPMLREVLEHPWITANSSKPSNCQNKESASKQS
Summary of the method: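 Active enzyme incubated 1 h with biotinylated STK substrate-2, 1 mM ATP and inhibitor in Hepes pH 7.4 with MgCl2, orthovanadate and Triton X-100. EDTA stop; phosphopeptide detected by Eu-cryptate anti-phospho-STK/SA-XL665 TR-FRET (665/615 nm ratio); IC50 by exponential fit.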

NCI-H1299 cells = assay: Induction of polyploidy in H1299; type: cell-based, Human; conditions: Homo sapiens; NCI-H1299, 48 hours; read-out: EC15 (concentration of inhibitor necessary to induce polyploidy in 15% of cells)
Summary of the method: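 NCI-H1299 cells in RPMI 1640/10% FCS were treated with inhibitor concentrations in duplicate for 48 h at 37 C, then formalin-fixed and Hoechst-stained. Nuclear area was measured by high-content imaging, with polyploid (≥4N) defined as >750 μ^2. EC15 was derived by least-squares fit of log dose-response.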

KDR = KDR (Homo sapiens, UniProt P35968); assay: KDR HTRF in vitro kinase assay; type: biochemical; design: purified enzyme (His6-KDR 789-1354, MW 63 kD); His6 (N); conditions: 1 mM ATP; read-out: KDR enzyme inhibition data (Ki)
Sequence of KDR (P35968 789-1354): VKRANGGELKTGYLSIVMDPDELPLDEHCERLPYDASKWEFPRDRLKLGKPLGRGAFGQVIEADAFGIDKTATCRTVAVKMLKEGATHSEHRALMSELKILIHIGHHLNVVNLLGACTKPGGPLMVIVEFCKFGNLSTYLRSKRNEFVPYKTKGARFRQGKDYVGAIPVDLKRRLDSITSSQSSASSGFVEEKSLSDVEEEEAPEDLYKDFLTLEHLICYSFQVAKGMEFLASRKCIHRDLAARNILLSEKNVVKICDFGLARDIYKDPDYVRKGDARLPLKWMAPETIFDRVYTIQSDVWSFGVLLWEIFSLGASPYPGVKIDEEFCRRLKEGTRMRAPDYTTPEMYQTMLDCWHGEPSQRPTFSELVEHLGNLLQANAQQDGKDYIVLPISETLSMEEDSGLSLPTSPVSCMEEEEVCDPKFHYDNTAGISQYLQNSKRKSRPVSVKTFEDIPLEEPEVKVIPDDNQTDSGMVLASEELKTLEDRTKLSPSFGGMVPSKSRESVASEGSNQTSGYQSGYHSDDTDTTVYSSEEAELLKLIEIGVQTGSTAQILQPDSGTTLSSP
Summary of the method: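 His6-KDR 789-1354 (7 ng/well) with 0.5 μM biotinylated peptide substrate and 1 mM ATP in HEPES pH 7.1, MgCl2/MnCl2, 60 min at room temperature. EDTA-quenched, detected by streptavidin-XL-665 plus Eu-kryptate anti-phosphotyrosine HTRF after 3 h; IC50 from 620/665 nm ratio.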

T1 sequence (Q96GD4 whole entry, the tested form may be a part): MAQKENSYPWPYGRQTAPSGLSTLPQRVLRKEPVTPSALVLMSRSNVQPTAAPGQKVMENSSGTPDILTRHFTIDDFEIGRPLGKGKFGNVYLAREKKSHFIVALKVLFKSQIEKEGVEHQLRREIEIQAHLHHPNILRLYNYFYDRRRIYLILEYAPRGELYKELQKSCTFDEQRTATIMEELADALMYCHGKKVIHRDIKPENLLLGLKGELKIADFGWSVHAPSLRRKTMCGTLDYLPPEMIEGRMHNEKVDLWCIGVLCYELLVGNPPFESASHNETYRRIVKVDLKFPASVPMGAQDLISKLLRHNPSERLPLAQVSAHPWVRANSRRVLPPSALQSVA
T1 sequence (Q9NQS7 826-918 partner limits assumed): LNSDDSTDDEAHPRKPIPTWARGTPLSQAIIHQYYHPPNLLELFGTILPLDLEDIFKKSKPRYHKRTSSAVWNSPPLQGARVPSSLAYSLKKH

SMILES	Ki (Aurora B) [nM]	Ki (Aurora A) [nM]	Ki (KDR) [nM]	EC15 (NCI-H1299 cells) [nM]
Cn1cc(Nc2ncc(C(F)(F)F)c(Nc3ccsc3C(N)=O)n2)cn1 [Example 150, 3-({2-[(1-methyl-1H-pyrazol-4-yl)amino]-5-(trifluoromethyl)pyrimidin-4-yl}amino)thiophene-2-carboxamide]	< 100	< 100	< 100	< 100
NC(=O)[C@@H]1[C@H](Nc2nc(Nc3cnn(Cc4cccc(Cl)c4)c3)ncc2Cl)[C@H]2C=C[C@@H]1C2 [Example 157, (1S,2S,3R,4R)-3-[(5-chloro-2-{[1-(3-chlorobenzyl)-1H-pyrazol-4-yl]amino}pyrimidin-4-yl)amino]bicyclo[2.2.1]hept-5-ene-2-carboxamide]	< 100	< 100	< 100	< 100
NC(=O)[C@@H]1[C@H](Nc2nc(Nc3cnn(Cc4ccccc4Cl)c3)ncc2Cl)[C@H]2C=C[C@@H]1C2 [Example 161, (1S,2S,3R,4R)-3-[(5-chloro-2-{[1-(2-chlorobenzyl)-1H-pyrazol-4-yl]amino}pyrimidin-4-yl)amino]bicyclo[2.2.1]hept-5-ene-2-carboxamide]	< 100	< 100	< 100	< 100
NC(=O)[C@@H]1[C@H](Nc2nc(Nc3cnn(Cc4ccc(Cl)cc4)c3)ncc2Cl)[C@H]2C=C[C@@H]1C2 [Example 162, (1S,2S,3R,4R)-3-[(5-chloro-2-{[1-(4-chlorobenzyl)-1H-pyrazol-4-yl]amino}pyrimidin-4-yl)amino]bicyclo[2.2.1]hept-5-ene-2-carboxamide]	< 100	< 100	< 100	< 100
Cn1cc(Nc2ncc(Cl)c(N[C@H]3[C@@H](C(N)=O)C[C@H]4C[C@@H]3C4(C)C)n2)cn1 [Example 165, (1R,2R,3S,5R)-2-({5-chloro-2-[(1-methyl-1H-pyrazol-4-yl)amino]pyrimidin-4-yl}amino)-6,6-dimethylbicyclo[3.1.1]heptane-3-carboxamide]	< 100	< 100	< 100	< 100
Cn1cc(Nc2ncc(C(F)(F)F)c(N[C@H]3[C@@H](C(N)=O)C[C@H]4C[C@@H]3C4(C)C)n2)cn1 [Example 167, (1R,2R,3S,5R)-6,6-dimethyl-2-({2-[(1-methyl-1H-pyrazol-4-yl)amino]-5-(trifluoromethyl)pyrimidin-4-yl}amino)bicyclo[3.1.1]heptane-3-carboxamide]	< 100	< 100	< 100	< 100
CCn1cc(Nc2ncc(C(F)(F)F)c(N[C@H]3[C@@H](C(N)=O)C[C@H]4C[C@@H]3C4(C)C)n2)cn1 [Example 168, (1R,2R,3S,5R)-2-({2-[(1-ethyl-1H-pyrazol-4-yl)amino]-5-(trifluoromethyl)pyrimidin-4-yl}amino)-6,6-dimethylbicyclo[3.1.1]heptane-3-carboxamide]	< 100	< 100	< 100	< 100
Cc1c(Nc2ncc(Cl)c(N[C@H]3[C@@H](C(N)=O)[C@@H]4C=C[C@H]3C4)n2)cnn1C [Example 169, (1S,2S,3R,4R)-3-({5-chloro-2-[(1,5-dimethyl-1H-pyrazol-4-yl)amino]pyrimidin-4-yl}amino)bicyclo[2.2.1]hept-5-ene-2-carboxamide]	< 100	< 100	< 100	< 100
Cc1c(Nc2ncc(Br)c(N[C@H]3[C@@H](C(N)=O)[C@@H]4C=C[C@H]3C4)n2)cnn1C [Example 170, (1S,2S,3R,4R)-3-({5-bromo-2-[(1,5-dimethyl-1H-pyrazol-4-yl)amino]pyrimidin-4-yl}amino)bicyclo[2.2.1]hept-5-ene-2-carboxamide]	< 100	< 100	< 100	< 100
NC(=O)[C@@H]1[C@H](Nc2nc(Nc3cnn(-c4ccccc4)c3)ncc2Br)[C@H]2C=C[C@@H]1C2 [Example 173, (1S,2S,3R,4R)-3-({5-bromo-2-[(1-phenyl-1H-pyrazol-4-yl)amino]pyrimidin-4-yl}amino)bicyclo[2.2.1]hept-5-ene-2-carboxamide]	< 100	< 100	< 100	< 100

Continued, in another order:

Ki (Aurora B) [nM]	Ki (Aurora A) [nM]	Ki (KDR) [nM]	SMILES	EC15 (NCI-H1299 cells) [nM]
< 100	< 100	< 100	NC(=O)[C@@H]1[C@H](Nc2nc(Nc3cnn(CCc4ccccc4)c3)ncc2Br)[C@H]2C=C[C@@H]1C2 [Example 148, (1S,2S,3R,4R)-3-[(5-bromo-2-{[1-(2-phenylethyl)-1H-pyrazol-4-yl]amino}pyrimidin-4-yl)amino]bicyclo[2.2.1]hept-5-ene-2-carboxamide]	< 100
< 100	< 100	< 100	NC(=O)[C@@H]1[C@H](Nc2nc(Nc3cnn(Cc4ccccc4)c3)ncc2Br)[C@H]2C=C[C@@H]1C2 [Example 149, (1S,2S,3R,4R)-3-({2-[(1-benzyl-1H-pyrazol-4-yl)amino]-5-bromopyrimidin-4-yl}amino)bicyclo[2.2.1]hept-5-ene-2-carboxamide]	< 100
< 100	< 100	< 100	COc1cccc(CCn2cc(Nc3ncc(Cl)c(N[C@H]4[C@@H](C(N)=O)[C@@H]5C=C[C@H]4C5)n3)cn2)c1 [Example 154, (1S,2S,3R,4R)-3-{[5-chloro-2-({1-[2-(3-methoxyphenyl)ethyl]-1H-pyrazol-4-yl}amino)pyrimidin-4-yl]amino}bicyclo[2.2.1]hept-5-ene-2-carboxamide]	< 100
< 100	< 100	< 100	COc1cccc(Cn2cc(Nc3ncc(Cl)c(N[C@H]4[C@@H](C(N)=O)[C@@H]5C=C[C@H]4C5)n3)cn2)c1 [Example 155, (1S,2S,3R,4R)-3-[(5-chloro-2-{[1-(3-methoxybenzyl)-1H-pyrazol-4-yl]amino}pyrimidin-4-yl)amino]bicyclo[2.2.1]hept-5-ene-2-carboxamide]	< 100
< 100	< 100	< 100	NC(=O)[C@@H]1[C@H](Nc2nc(Nc3cnn(CCc4cccc(Cl)c4)c3)ncc2Cl)[C@H]2C=C[C@@H]1C2 [Example 158, (1S,2S,3R,4R)-3-{[5-chloro-2-({1-[2-(3-chlorophenyl)ethyl]-1H-pyrazol-4-yl}amino)pyrimidin-4-yl]amino}bicyclo[2.2.1]hept-5-ene-2-carboxamide]	< 100
< 100	< 100	< 100	COc1cccc(Cn2cc(Nc3ncc(Br)c(N[C@H]4[C@@H](C(N)=O)[C@@H]5C=C[C@H]4C5)n3)cn2)c1 [Example 159, (1S,2S,3R,4R)-3-[(5-bromo-2-{[1-(3-methoxybenzyl)-1H-pyrazol-4-yl]amino}pyrimidin-4-yl)amino]bicyclo[2.2.1]hept-5-ene-2-carboxamide]	< 100
< 100	< 100	< 100	COc1cccc(CCn2cc(Nc3ncc(Br)c(N[C@H]4[C@@H](C(N)=O)[C@@H]5C=C[C@H]4C5)n3)cn2)c1 [Example 160, (1S,2S,3R,4R)-3-{[5-bromo-2-({1-[2-(3-methoxyphenyl)ethyl]-1H-pyrazol-4-yl}amino)pyrimidin-4-yl]amino}bicyclo[2.2.1]hept-5-ene-2-carboxamide]	< 100
< 100	< 100	< 100	NC(=O)[C@@H]1[C@H](Nc2nc(Nc3cnn(Cc4ccccc4Cl)c3)ncc2Br)[C@H]2C=C[C@@H]1C2 [Example 171, (1S,2S,3R,4R)-3-[(5-bromo-2-{[1-(2-chlorobenzyl)-1H-pyrazol-4-yl]amino}pyrimidin-4-yl)amino]bicyclo[2.2.1]hept-5-ene-2-carboxamide]	< 100
< 100	< 100	< 100	NC(=O)[C@@H]1[C@H](Nc2nc(Nc3cnn(Cc4ccc(Cl)cc4)c3)ncc2Br)[C@H]2C=C[C@@H]1C2 [Example 172, (1S,2S,3R,4R)-3-[(5-bromo-2-{[1-(4-chlorobenzyl)-1H-pyrazol-4-yl]amino}pyrimidin-4-yl)amino]bicyclo[2.2.1]hept-5-ene-2-carboxamide]	< 100
